Assay [1] addresses T1, PPARα (Homo sapiens, UniProt Q07869).
T1 sequence (Q07869 1-468): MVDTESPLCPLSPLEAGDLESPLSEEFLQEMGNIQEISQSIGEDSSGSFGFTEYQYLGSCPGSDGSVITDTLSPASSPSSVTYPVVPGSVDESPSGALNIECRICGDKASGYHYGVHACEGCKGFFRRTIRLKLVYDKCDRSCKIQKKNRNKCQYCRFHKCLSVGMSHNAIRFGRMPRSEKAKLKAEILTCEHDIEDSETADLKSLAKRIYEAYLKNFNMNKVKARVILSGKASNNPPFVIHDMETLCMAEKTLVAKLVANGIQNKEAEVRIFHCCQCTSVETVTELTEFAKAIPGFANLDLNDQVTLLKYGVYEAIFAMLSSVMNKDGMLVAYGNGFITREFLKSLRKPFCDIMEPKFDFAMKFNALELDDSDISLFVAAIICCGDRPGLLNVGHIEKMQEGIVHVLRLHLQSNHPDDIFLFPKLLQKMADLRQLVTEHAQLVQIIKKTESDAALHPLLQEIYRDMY
The assay is described as follows: DiscoverX cell-based reporter assay, agonist mode.

Assay [2] concerns the target T2, PPARδ (Homo sapiens, UniProt Q03181).
T2 sequence (Q03181 1-441): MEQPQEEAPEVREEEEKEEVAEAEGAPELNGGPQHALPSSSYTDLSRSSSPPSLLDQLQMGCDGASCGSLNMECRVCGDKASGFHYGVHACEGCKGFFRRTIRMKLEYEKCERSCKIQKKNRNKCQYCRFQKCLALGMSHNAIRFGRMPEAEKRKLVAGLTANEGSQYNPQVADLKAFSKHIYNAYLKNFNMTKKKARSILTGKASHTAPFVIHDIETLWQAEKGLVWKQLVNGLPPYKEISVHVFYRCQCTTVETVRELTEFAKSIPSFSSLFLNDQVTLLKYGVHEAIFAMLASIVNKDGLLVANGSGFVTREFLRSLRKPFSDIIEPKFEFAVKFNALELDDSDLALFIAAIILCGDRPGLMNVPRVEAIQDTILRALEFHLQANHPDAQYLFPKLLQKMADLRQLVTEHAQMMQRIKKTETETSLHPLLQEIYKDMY
The assay is described as follows: DiscoverX cell-based reporter assay, agonist mode. In general terms: Reporter assays use an easily measured gene product as a stand-in for the process of interest.

Assay [3] has as its target GPR84 (Homo sapiens, UniProt Q9NQS5). The assay is described as follows: DiscoverX cell-based reporter assay, agonist mode.
The target in assay [4] is T3, F. prausnitzii FAAH (CGOBPECO_01956) (Faecalibacterium prausnitzii, UniProt A0A564UB45).
T3 sequence (A0A564UB45 31-399): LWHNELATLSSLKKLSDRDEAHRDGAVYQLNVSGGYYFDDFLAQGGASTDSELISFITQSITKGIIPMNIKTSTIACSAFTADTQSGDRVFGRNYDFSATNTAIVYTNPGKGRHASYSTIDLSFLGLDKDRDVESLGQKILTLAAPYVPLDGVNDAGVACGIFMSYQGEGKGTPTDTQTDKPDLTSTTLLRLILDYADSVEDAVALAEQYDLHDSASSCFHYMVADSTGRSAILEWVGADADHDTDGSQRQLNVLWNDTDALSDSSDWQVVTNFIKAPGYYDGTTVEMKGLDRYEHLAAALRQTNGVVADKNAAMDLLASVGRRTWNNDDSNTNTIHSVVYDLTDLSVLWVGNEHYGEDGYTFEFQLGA
In words: LC-MS hydrolysis rate assay. It counts as biochemical. Conditions: 100 uM OEA.

Each structure is given as a SMILES string.

Sequence of GPR84 (Q9NQS5 whole entry): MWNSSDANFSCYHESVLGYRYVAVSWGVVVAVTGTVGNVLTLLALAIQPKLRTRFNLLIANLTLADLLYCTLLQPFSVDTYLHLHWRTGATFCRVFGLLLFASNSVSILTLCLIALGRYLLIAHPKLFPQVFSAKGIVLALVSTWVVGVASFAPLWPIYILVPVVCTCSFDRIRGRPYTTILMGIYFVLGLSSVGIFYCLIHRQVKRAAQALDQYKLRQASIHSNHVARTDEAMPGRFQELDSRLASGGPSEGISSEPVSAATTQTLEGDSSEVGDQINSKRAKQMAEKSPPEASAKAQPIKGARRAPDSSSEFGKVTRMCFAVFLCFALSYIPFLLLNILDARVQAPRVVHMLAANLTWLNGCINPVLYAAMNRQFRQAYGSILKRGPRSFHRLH

On to `CCCCCCCC/C=C\CCCCCCCC(=O)NCCO` [OEA], for which the “% activation at 10 μM” value is “OEA was a strong agonist of PPARδ and to a lesser extent PPARα” in assay [1]; “OEA was a strong agonist of PPARδ and to a lesser extent PPARα” in assay [2]; “GPR84, which was strongly activated by OEA” in assay [3]. Further, in assay [4], the “LC-MS hydrolysis rate assay” value was “hydrolytic activity of FAAH against PEA, OEA, C18:1-Arg, and C18:1-Lys (Fig. 2D)”.
